Reference: patent US6395755B1, “Benzothiophene pharmaceutical compounds” (Eli Lilly and Company, priority 1995, dated 2002)
Read-outs that look alike come from different tables or passages of the source.

Assays:
[1] = system: uterus of ovariectomized (OVX) rats; set-up: species or system Sprague Dawley rats; conditions: rat, in vivo, po, 0.1 mg/kg/day
Description: (§1) In the examples illustrating the methods, a post-menopausal model was used in which effects of different treatments upon circulating lipids were determined.
(§2) Seventy-five day old female Sprague Dawley rats (weight range of 200 to 225 g) are obtained from Charles River Laboratories (Portage, Mich.). The animals are either bilaterally ovariectomized (OVX) or exposed to a Sham surgical procedure at Charles River Laboratories, and then shipped after one week. Upon arrival, they are housed in metal hanging cages in groups of 3 or 4 per cage and have ad libitum access to food (calcium content approximately 0.5%) and water for one week. Room temperature is maintained at 22.2° ±1.7° C. with a minimum relative humidity of 40%. The photoperiod in the room is 12 hours light and 12 hours dark.
Dosing Regimen Tissue Collection. After a one week acclimation period (therefore, two weeks post-OVX) daily dosing with test compound is initiated. 17α-ethynyl estradiol or the test compound is given orally, unless otherwise stated, as a suspension in 1% carboxymethylcellulose or dissolved in 20% cyclodextrin. Animals were dosed daily for 4 days. […] The animals are then sacrificed by asphyxiation with CO2, the uterus is removed through a midline incision, and a wet uterine weight is determined.

[2] = system: femur density of ovariectomized rats; assay: Osteoporosis Test Procedure (35 day OVX rat, femur density); type: in vivo; conditions: oral in 20% hydroxypropyl β-cyclodextrin, daily for 35 days
Description: Following the General Preparation Procedure, infra, the rats are treated daily for 35 days (6 rats per treatment group) and sacrificed by carbon dioxide asphyxiation on the 36th day. The 35 day time period is sufficient to allow maximal reduction in bone density, measured as described herein. At the time of sacrifice, the uteri are removed, dissected free of extraneous tissue, and the fluid contents are expelled before determination of wet weight in order to confirm estrogen deficiency associated with complete ovariectomy. […] The uteri are then placed in 10% neutral buffered formalin to allow for subsequent histological analysis. The right femurs are excised and digitilized x-rays generated and analyzed by an image analysis program (NIH image) at the distal metaphysis. The proximal aspect of the tibiae from these animals are also scanned by quantitative computed tomography. In accordance with the above procedures, compounds of the present invention and ethynyl estradiol (EE2) in 20% hydroxypropyl β-cyclodextrin are orally administered to test animals.

[3] = system: Uterine Eosinophil Peroxidase (EPO); set-up: species or system Sprague Dawley rats; conditions: rat, in vivo; for Uterine EPO (V. max): po
From the text: as §2
(§3) Dosing Regimen Tissue Collection. After a one week acclimation period (therefore, two weeks post-OVX) daily dosing with test compound is initiated. 17α-ethynyl estradiol or the test compound is given orally, unless otherwise stated, as a suspension in 1% carboxymethylcellulose or dissolved in 20% cyclodextrin. Animals were dosed daily for 4 days. Following the dosing regimen, animals are weighed and anesthetized with a ketamine: Xylazine (2:1, V:V) mixture and a blood sample is collected by cardiac puncture. The animals are then sacrificed by asphyxiation with CO2, the uterus is removed through a midline incision, and a wet uterine weight is determined.
Uterine Eosinophil Peroxidase (EPO) Assay. Uteri are kept at 4° C. until time of enzymatic analysis. The uteri are then homogenized in 50 volumes of 50 mM Tris buffer (pH−8.0) containing 0.005% Triton X-100. Upon addition of 0.01% hydrogen peroxide and 10 mM O-phenylenediamine (final concentrations) in Tris buffer, increase in absorbance is monitored for one minute at 450 nm. The presence of eosonophils in the uterus is an indication of estrogenic activity of a compound. The maximal velocity of a 15 second interval is determined over the initial, linear portion of the reaction curve.

[4] = system: Serum cholesterol; assay: Serum cholesterol in ovariectomized rats (post-menopausal model); type: in vivo, Sprague Dawley rats; conditions: oral; for Serum Cholesterol (% decrease vs. OVX): daily for 4 days
Description: as §1, §2, §3
Cholesterol Analysis. Blood samples are allowed to clot at room temperature for 2 hours, and serum is obtained following centrifugation for 10 minutes at 3000 rpm. Serum cholesterol is determined using a Boehringer Mannheim Diagnostics high performance cholesterol assay. Briefly the cholesterol is oxidized to cholest-4-en-3-one and hydrogen peroxide. The hydrogen peroxide is then reacted with phenol and 4-aminophenazone in the presence of peroxidase to produce a p-quinone imine dye, which is read spectrophotemetrically at 500 nm. Cholesterol concentration is then calculated against a standard curve. The entire assay is automated using a Biomek Automated Workstation.

Row | SMILES | Effect on uterine weight compared to ovariectomized animals (in words) [1] | Prevention of loss of femur density / bone loss after ovariectomy [2] | Eosinophil infiltration into the uterus (stromal layer), in words [3] | Uterine EPO (V. max) ([3]; 0.1 mg/kg) | Effect on serum cholesterol compared to ovariectomized controls (in words) ([4]; OVX rats, EE2 at 0.1 mg/kg/day) | Serum Cholesterol (% decrease vs. OVX) ([4]; dose 0.1 mg/kg) [%] | Uterine EPO (V. max) ([3]; 0.01 mg/kg) | Uterine EPO (V. max) ([3]; 1 mg/kg) | Uterine EPO (V. max) ([3]; 5 mg/kg) | Serum Cholesterol (% decrease vs. OVX) ([4]; dose 0.01 mg/kg) [%] | Serum Cholesterol (% decrease vs. OVX) ([4]; dose 1.0 mg/kg) [%] | Serum Cholesterol (% decrease vs. OVX) ([4]; dose 5.0 mg/kg) [%]
1 | C#C[C@]1(O)CC[C@H]2[C@@H]3CCc4cc(O)ccc4[C@H]3CC[C@@]21C [EE2, 17α-ethynyl estradiol, reference compound] | substantially greater than the uterine weight of ovariectomized test animals | prevented this loss | substantial, expected increase in eosinophil infiltration | 189.6 | caused a decrease in serum cholesterol | 84.8 |  |  |  |  |  | 
2 | CC(O)(c1ccc(OCCN2CCCCC2)cc1)c1c(-c2ccc(O)cc2)sc2cc(O)ccc12 (stereo not drawn) [Example 2] |  |  |  | 5.1 |  | 19.4 | 4.2 | 7.8 | 5.7 | −10.2 | 50.7 | 53.9
3 | CC(c1ccc(OCCN2CCCCC2)cc1)c1c(-c2ccc(O)cc2)sc2cc(O)ccc12 (stereo not drawn) [Example 4] |  |  |  | 3.6 |  | 10.4 | 4.5 | 5.4 | 3.9 | −26.5 | 43.9 | 35.2
4 | Oc1ccc(-c2sc3cc(O)ccc3c2C(O)(c2ccccc2)c2ccc(OCCN3CCCCC3)cc2)cc1 (stereo not drawn) [Example 8] |  |  |  | 3.6 |  | −3.1 | 4.2 | 4.5 | 35.1 | −9.0 | 14.0 | 56.9
5 | O=C(c1ccc(OCCN2CCCCC2)cc1)c1c(-c2ccc(O)cc2)sc2cc(O)ccc12 [Raloxifene, reference compound] |  |  |  | 5.4 |  | 30.4 | 3.9 | 4.5 |  | 12.0 | 60.6 | 
